According to US9499493B2, “2,4-pyrimidinediamine compounds and their uses” (Rigel Pharmaceuticals, Inc., priority 2002, dated 2016):

Experiments:
[1] = test system: cultured human mast cells (CHMC); experiment: CHMC low cell density ionomycin activation: tryptase assay; type: cell-based
[2] = test system: cultured human mast cells (CHMC); experiment: CHMC low cell density IgE activation: tryptase assay; type: cell-based; settings: anti-IgE
Summary of the method: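 Low-density CHMC assay: donor-adjusted 1000-1500 cells/well, MT buffer, 1 hr 37° C preincubation; anti-IgE stimulus 30 min 37° C versus MT-only controls; supernatant tryptase by substrate, 30 min RT.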

Compound | IC50 [1] | IC50 [2]
CCOC(=O)COc1cccc(Nc2nc(Nc3ccc4c(c3)OCCO4)ncc2F)c1 [R926774, N4-(3-Ethoxycarbonylmethyleneoxyphenyl)-N2-(3,4-ethylenedioxyphenyl)-5-fluoro-2,4-pyrimidinediamine] | 7.94 µM | 1.93 µM
CNC(=O)COc1cccc(Nc2ncc(F)c(Nc3ccc(OC(F)(F)F)cc3)n2)c1 [R926879, 5-Fluoro-N2-[3-(N-methylamino)carbonylmethyleneoxyphenyl]-N4-[4-trifluoromethoxyphenyl]-2,4-pyrimidinediamine] | > 10 µM | 0.397 µM
CCOC(=O)COc1ccc(Nc2nc(Nc3ccc(OCC(=O)OCC)cc3)c(NC(=O)NC(=O)OCC)c(C(=O)OCC)n2)cc1 [R926586, N2,N4-Bis(4-ethoxycarbonylmethyleneoxyphenyl)-6-ethoxycarbonyl-5-(ethoxycarbonylaminocarbonylamino)-2,4-5-pyrimidinetriamine] | > 10 µM | 2.75 µM
Cn1nnnc1COc1ccc(Nc2nccc(Nc3cccc(O)c3)n2)cc1 [R920917, N4-(3-hydroxyphenyl)-N2-[4-(1-methyl-1,2,3,4-tetrazol-5-yl)methyleneoxyphenyl]-2,4-pyrimidineamine] | 9.73 µM | 1.58 µM
CNC(=O)COc1cccc(Nc2ncc(F)c(Nc3ccc(-n4cnc(Cl)c4Cl)cc3)n2)c1 [R926812, N4-[4-(4,5-Dichloro-1H-imidazol-1-ylphenyl)]-5-fluoro-N2-[3-(N-methylamino)carbonylmethyleneoxyphenyl]-2,4-pyrimidinediamine] | > 10 µM | 0.185 µM
CCOC(=O)Cc1nnc(-c2cccc(Nc3ncc(F)c(Nc4cccc(O)c4)n3)c2)o1 [R926874] | > 10 µM | 0.638 µM
CNC(=O)COc1ccc(Nc2ncc(F)c(Nc3ccc4c(c3)OCCO4)n2)cc1 [R926708, N4-(3,4-Ethylenedioxyphenyl)-5-fluoro-N2-[4-(N-methylamino)carbonylmethyleneoxyphenyl]-2,4-pyrimidinediamine] | > 10 µM | 0.472 µM
CNC(=O)COc1cccc(Nc2ncc(F)c(Nc3ccc(OC(C)C)cc3)n2)c1 [R926730, 5-Fluoro-N4-(4-isopropoxyphenyl)-N2-[3-(N-methylamino)carbonylmethyleneoxyphenyl]-2,4-pyrimidinediamine] | > 10 µM | 0.251 µM
NC(=O)COc1cccc(Nc2ncc(F)c(Nc3ccc4c(c3)OCCO4)n2)c1 [R926747, N2-(3-Aminocarbonylmethyleneoxyphenyl)-N4-(3,4-ethylenedioxyphenyl)-5-fluoro-2,4-pyrimidinediamine] | > 10 µM | 0.213 µM
CNC(=O)COc1cccc(Nc2ncc(F)c(Nc3cccc(OC(=O)N(C(=O)NC(C)C)C(C)C)c3)n2)c1 [R926916] | > 10 µM | 1.96 µM
5-Cyano-N2-(3-hydroxyphenyl)-N4-(methoxycarbonylbenzyl)-2,4-pyrimidinediamine [R925821] | > 10 µM | > 10 µM
O=C(O)c1cnc(Nc2cccc(O)c2)nc1NC(C(=O)O)c1ccccc1 (stereo not drawn) [R926535, 5-Carboxy-N2-(3-hydroxyphenyl)-N4-[N-(L)-phenylglycine)-2-pyrimidineamine] | > 10 µM | > 10 µM
O=C(COc1ccc(Nc2ncc(F)c(Nc3ccc4c(c3)OCCO4)n2)cc1)NCCO [R909239, N4-(3,4-Ethylendioxyphenyl)-5-fluoro-N2-[4-(N-2-hydroxyethylamino)carbonylmethyleneoxyphenyl]-2,4-pyrimidinediamine] | > 10 µM | 0.264 µM
COC(=O)c1cnc(Nc2ccc(OCC(=O)N3CCCC3)cc2)nc1Nc1ccc(OCC(=O)N2CCCC2)cc1 [R926559, 5-Methoxycarbonyl-N2,N4-bis[4-(N-pyrrolidino)carbonylmethyleneoxyphenyl)-2,4-pyrimidinediamine] | > 10 µM | 7.7 µM
COc1cccc(Nc2nc(Nc3cccc(OCC(=O)NCC(O)CO)c3)ncc2F)c1 (stereo not drawn) [R926739, N2-[3-(N-2,3-Dihydroxypropylamino)carbonylmethyleneoxyphenyl]-5-fluoro-N4-(3-methoxyphenyl)-2,4-pyrimidinediamine] | > 10 µM | 0.508 µM
COC(=O)c1cc2ccc(Nc3ncc(F)c(Nc4cccc(O)c4)n3)cc2[nH]1 [R926903] | > 10 µM | 0.243 µM
CCOC(=O)CNc1nc(Nc2ccc(OCC(=O)OCC)cc2)nc(C(=O)OCC)c1[N+](=O)[O-] [R925858, 6-Ethoxycarbonyl-N4-(ethoxycarbonylmethyl)-N2-(4-ethoxycarbonylmethyleneoxyphenyl)-5-nitro-2,4-pyrimidinediamine] | 7.3 µM | 8.05 µM
CC(C)(C)c1ccc(Nc2nc(Nc3cccc(OCCO)c3)ncc2F)cc1 [R926728] | > 10 µM | 0.482 µM
CCOC(=O)COc1cccc(Nc2nc(Nc3cccc(O)c3)ncc2F)c1 [R926775, N4-(3-Ethoxycarbonylmethyleneoxyphenyl)-5-fluoro-N2-(3-hydroxyphenyl)-2,4-pyrimidinediamine] | > 10 µM | 3.47 µM
O=C(COc1cccc(Nc2ncc(F)c(Nc3cccc(O)c3)n2)c1)NCCO [R926506, 5-Fluoro-N4-(3-hydroxyphenyl)-N2-[3-(N-2-hydroxyethylamino)carbonylmethyleneoxyphenyl]-2,4-pyrimidinediamine] | > 10 µM | 0.343 µM
CC(C)Oc1ccc(Nc2nc(Nc3cccc(OCC(=O)O)c3)ncc2F)cc1 [R926731, 5-Fluoro-N2-[3-(carboxymethyleneoxy)phenyl]-N4-[4-(isopropoxy)phenyl]-2,4-pyrimidinediamine] | > 10 µM | > 10 µM
CNC(=O)COc1cccc(Nc2ncc(F)c(Nc3ccc(F)c(C(F)(F)F)c3)n2)c1 [R926838, 5-Fluoro-N4-(4-fluoro-3-trifluoromethylphenyl)-N2-[3-(N-methylamino)carbonylmethyleneoxyphenyl]-2,4-pyrimidinediamine] | > 10 µM | 0.583 µM
CCOC(=O)COc1cccc(Nc2ncc(F)c(Nc3ccc4c(c3)NC(C)(C)CO4)n2)c1 [R909308] | > 10 µM | 0.671 µM
C=CCNC(=O)Oc1cccc(Nc2nc(Nc3cccc(OCC(=O)NC)c3)ncc2F)c1 [R926917, 5-Fluoro-N4-[3-[(N-allylamino)carbonyloxy]phenyl]-N2-[3-[(N-methylamino)carbonylmethyleneoxy]phenyl]-2,4-pyrimidinediamine] | > 10 µM | 1.17 µM

The remaining lines, values ahead:

IC50 [1] | IC50 [2] | Compound
8.81 µM | 1.03 µM | CCOC(=O)COc1cccc(Nc2ncc(F)c(Nc3cc(Cl)c(O)c(Cl)c3)n2)c1 [R950185, N4-(3,5-Dichloro-4-hydroxyphenyl)-N2-(3-ethoxycarbonylmethyleneoxyphenyl)-5-fluoro-2,4-pyrimidinediamine]
> 10 µM | 3.8 µM | COC(=O)c1cc2cc(Nc3ncc(F)c(Nc4ccc(OCc5nc(C)no5)cc4)n3)ccc2o1 [R935146, 5-Fluoro-N2-(2-methoxycarbonylbenzofura-5-yl)-N4-[4-(3-methyl-1,2,4-oxadiazol-5-yl)methyleneoxyphenyl]-2,4-pyrimidinediamine]
> 10 µM | 3.79 µM | COC(=O)Cn1ncc2ccc(Nc3nc(Nc4cccc(O)c4)ncc3F)cc21 [R935220, 5-Fluoro-N2-(3-hydroxyphenyl)-N4-[1-(methoxycarbonyl)methyl-indazoline-6-yl]-2,4-pyrimidinediamine]
> 10 µM | > 10 µM | NC(=O)COc1ccc(Nc2ncc(F)c(Nc3ccc(OCC(N)=O)cc3)n2)cc1 [R945025, N2,N4-Bis[4-(aminocarbonylmethyleneoxy)phenyl]-5-fluoro-2,4-pyrimidinediamine]
> 10 µM | 1.37 µM | COC(=O)c1cc2cc(Nc3ncc(F)c(Nc4ccc5c(c4)C(=O)OC5)n3)ccc2o1 [R940294, N4-(3,3-Dihydroisobenzofuranyl-1-one-6-yl)-5-fluoro-N2-(2-methoxycarbonylbenzofur-5-yl)-2,4-pyrimidinediamine]
1.48 µM | 0.119 µM | COC(=O)COc1ccc(Nc2ncc(F)c(Nc3ccc(OCC#N)cc3)n2)cc1 [R945053, N4-(4-Cyanomethyleneoxyphenyl)5-fluoro-N2-(4-methoxycarbonylmethyleneoxyphenyl)-2,4-pyrimidinediamine]
> 10 µM | 1.36 µM | CNC(=O)CCn1ncc2ccc(Nc3ncc(F)c(Nc4ccc(OC(C)C)cc4)n3)cc21 [R935291, 5-Fluoro-N4-(4-isopropoxyphenyl)-N2-[1-[2(N-methylamino)carbonyl]ethyl-indazoline-6-yl]-2,4-pyrimidinediamine]
> 10 µM | 2.5 µM | CNC(=O)COc1cccc(Nc2ncc(F)c(Nc3cccc(C(N)=O)c3)n2)c1 [R940299, 5-Fluoro-N2-[3-(methylaminocarbonylmethyleneoxy)phenyl]-N4-(3-aminocarbonylphenyl)-2,4-pyrimidinediamine]
> 10 µM | > 10 µM | O=C(NCCO)c1cc2cc(Nc3ncc(F)c(Nc4ccc5oc(C(=O)NCCO)cc5c4)n3)ccc2o1 [R950167, N2,N4-Bis[2-(2-hydroxyethyleneamoinocarbonyl)-benzofurane-5-yl]-5-fluoro-2,4-pyrimidinediamine]
> 10 µM | 0.531 µM | O=C(CNc1cccc(Nc2ncc(F)c(Nc3ccc4c(c3)OCCO4)n2)c1)N1CCNCC1 [R950197, N4-(3,4-Ethylenedioxyphenyl)-5-fluoro-N2-[3-(N-piperazino)carbonylmethyleneaminophenyl]-5-fluoro-2,4-pyrimidinediamine]
> 10 µM | > 10 µM | O=[N+]([O-])c1ccc(NCCO)c(Nc2ncc(F)c(Nc3cc([N+](=O)[O-])ccc3NCCO)n2)c1 [R950150, N2,N4-Bis(2-hydroxyethyleneamino-5-nitrophenyl)-5-fluoro-2,4-pyrimidinediamine]
> 10 µM | 0.683 µM | OCCOc1cccc(Nc2ncc(F)c(Nc3ccc(CO)c(CO)c3)n2)c1 [R940292, N4-[3,4-Bis(hydroxymethyl)phenyl]-5-fluoro-N2-[3-(2-hydroxyethyleneoxy)phenyl]-2,4-pyrimidinediamine]
